From PubChem BioAssay AID651675 (Sanford-Burnham Center for Chemical Genomics, 2012) come the findings set out here.

Structures are written as SMILES. pEC50: −log10 of the molar value. Activity calls are given as the source filed them.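 The calls were made as follows: active = compounds raising alpha-dystroglycan glycosylation signal with mean half-maximal concentration of 20 µM or lower; inactive = the rest.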

In the experiment the test system is Pro5-aDG cells, alpha-DG glycosylation, IIH6 AlphaLISA. As to the kind of experiment: alpha-DG glycosylation activators, analog potency, SAR follow-up, Pro5-aDG cells, AlphaLISA (AID 651675). On the technique in general: Alpha assays give light when donor and acceptor beads are brought close together.
Broadly, the EC50 is the concentration needed to bring the measured effect to its halfway point. As for `Cn1c(=N)n(CC(=O)c2ccc(F)cc2)c2ccccc21`, the EC50 was 34.5 µM (inactive).
The term pEC50 denotes −log10 of the EC50, conventionally taken in molar units. Turning to `N=c1n(CC(=O)c2ccc(Cl)c(Cl)c2)c2ccccc2n1Cc1ccccc1`, the pEC50 is 4.81.
In the case of `CCC(C)Nc1nc(-c2c[nH]c3ccccc23)cs1` (centres undefined), the pEC50 is 5.15.
On to `C=CCNc1nc(-c2c[nH]c3ccccc23)cs1`, for which the pEC50 was 5.24.
With `CCn1c(=N)n(CC(=O)c2ccc(Cl)c(Cl)c2)c2ccccc21`, the EC50 was 25.2 µM (inactive).
Turning to `CCc1cccc2c(-c3csc(NC)n3)c[nH]c12`, the pEC50 is 5.40.
On the same count and under the same terms, with `CNc1nc(-c2c[nH]c3ccccc23)cs1` the figure was 4.99.
On to `Cn1c(=N)n(CC(=O)c2ccc(Cl)cc2)c2ccccc21`, for which the EC50 is 30.9 µM (inactive).
For the molecule `Cn1c(=N)n(CC(=O)c2ccc(Cl)c(Cl)c2)c2ccccc21`, the EC50 was 26 µM (inactive).
Same read-out and setting: with `C=CCn1c(=N)n(CC(=O)c2ccc(Cl)c(Cl)c2)c2ccccc21` the figure was 33.3 µM (inactive).
In the case of `c1ccc(CCNc2nc(-c3c[nH]c4ccccc34)cs2)cc1`, the pEC50 is 5.29.
As to `N=c1n(CCN2CCCC2)c2ccccc2n1CC(=O)c1ccc(Cl)c(Cl)c1`, the EC50 was 24.2 µM (inactive).
For the molecule `CCn1c(=N)n(CC(=O)c2ccc(Cl)cc2)c2ccccc21`, the EC50 is 26.6 µM (inactive).
In the case of `CC(Cc1ccccc1)Nc1nc(-c2c[nH]c3ccccc23)cs1` (centres undefined), the pEC50 was 5.06.
